According to patent US11478451B1, “Macrocyclic chlorine substituted indole derivatives” (Bayer Aktiengesellschaft, priority 2017, dated 2022):
Counter-ions that a name gives are not always drawn. Like-named read-outs stand apart in the source and are kept apart here.

Tests used:
[1] = the molecule shown is the open-chain precursor, crosslinker bond, 11-membered ring, MeCN
MCL1 protein = MCL1 protein (Homo sapiens (Human), UniProt Q07820); experiment: PIxEL: protein-protein interaction in permeabilized cells by ELISA (MCL1/biotin-BIM BH3 peptide, RKO cells); type: cell-based; conditions: IC50, median, serum free
Chain of MCL1 protein (Q07820 whole entry): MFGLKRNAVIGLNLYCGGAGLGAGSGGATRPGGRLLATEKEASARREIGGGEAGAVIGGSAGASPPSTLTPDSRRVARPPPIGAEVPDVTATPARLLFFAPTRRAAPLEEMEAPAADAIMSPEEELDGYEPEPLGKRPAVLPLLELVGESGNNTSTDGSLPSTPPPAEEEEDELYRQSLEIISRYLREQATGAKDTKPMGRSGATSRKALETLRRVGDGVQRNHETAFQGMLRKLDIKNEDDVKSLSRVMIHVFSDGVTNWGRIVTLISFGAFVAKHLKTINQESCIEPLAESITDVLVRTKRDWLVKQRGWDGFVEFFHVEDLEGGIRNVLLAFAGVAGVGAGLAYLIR
Experimental: PIxEL: Protein-Protein Interaction in Permeabilized Cells by ELISA
Most MCL1 protein molecules are localized at the mitochondria outer membrane and sequester pro-apoptotic proteins through binding of their BCL2 homology domain 3 (BH3 domain). MEB buffer (150 mM mannitol, 10 mM HEPES pH 7.5, 50 mM KCl, 20 μM EDTA, 20 μM EGTA, 5 mM potassium succinate, 0.1% protease-free BSA (SIGMA) with low dose digitonin (0.002%) permeabilizes plasma membrane while leaves live mitochondria, where MCL1 maintains its native localization and conformation. Unlike biophysical assays (e.g. TR-FRET) that use truncated recombinant MCL1 protein, this assay uses full length endogenous MCL1 protein at mitochondria outer membrane. It measures the interaction between MCL1 protein and biotinylated BIM BH3 peptide. Compounds can compete with BIM BH3 peptide to bind to MCL1 protein.
On day 1, RKO colon cancer cell line cells were plated at 0.8 million cells/ml, 100 μl/well in 96-well flat bottom TC plates (Corning). MCL1 antibody (Santa Cruz sc-12756) were diluted at 200 fold (final concentration 1 μg/ml) in carbonate buffer (Thermo Fisher Scientific, pH 9.6), and 50 μl of diluted antibody was added to each well of high bind ELISA plates ([…]). Each plate was tapped to make sure liquid covering entire bottom of wells and incubate at 37° C. overnight.
On the second day, MCL1 antibody was washed from ELISA plate. 250 μl Odyssey® Blocking Buffer (PBS) (Li-Cor) was added to each well, incubated at room temperature for at least 1 hour, then washed once with 250 μl 1×PBST. Plates with RKO cells were gently washed once with 100 μl/well PBS, once with 100 μl/well MEB buffer without digitonin, then 100 μl of MEB buffer with 0.002% digitonin was gently added to each well. Compounds were added with HP Tecan compound dispenser in 3-fold dilution series, highest dose 30 μM, 10-dose per compound in quadruplicates. Biotin-BIM peptide (synthesized by 21st Century) was added with HP Tecan compound dispenser at 0.2 μM immediately after the addition of compounds. Plates were rocked for 1 hour at room temperature. Then MEB buffer was aspirated and 50 μl of CHAPS buffer (50 mM Tris-Cl, pH 7.4, 150 mM NaCl, 1% CHAPS, 1 mM EDTA, 1 mM EGTA, cOmplete protease inhibitors (Roche), PhosSTOP (Roche)) was added to each well. Plates were rocked for 1 hour at 4° C., then 45 μl cell lysate from each well were transferred to ELISA plates coated with MCL1 antibody. Plates were incubated overnight in the cold room with rocking.
On the third day, ELISA plates were washed once with 250 μl 1×PBST. Streptavidin-poly-HRP (Thermo Fisher Scientific) was diluted to 20 ng/ml in Odyssey blocking buffer plus 0.05% Triton-100, and 100 μl was added to each well of the ELISA plate. Plates were incubated at RT from 1 hour with rocking, then washed with 100 μL 1×PBST for 3 times. Each SuperSignal ELISA Femto Maximum Sensitivity substrate was added to a 50-ml tube and mixed, then 100 μl of mixed substrate was added to each well. Plates were shaken for 1 minute then luminescence was measured by Envision plate reader […]. Signal of each well were normalized by no-compound control and no-cell control. IC50 was calculated using Graphic Pad PRISM software.

HMC-1-8 cells = experiment: Antiproliferation assay (CellTiter-Glo, 72 h), HMC-1-8; type: cell-based; conditions: IC50, median, HMC-1-8, 72 h, read-out: Antiproli HMC-1-8 [M] median
Procedure, shortened: (§1)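 Cells plated in treatment plates plus a day 0 reference plate; incubated 72 h at 37 °C; CellTiter-Glo added, 10 min incubation, luminescence read; day 0 plate read at time zero.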

SNU-389 cells = experiment: Antiproliferation assay (CellTiter-Glo, 72 h), SNU-389; type: cell-based; conditions: 72 h; read-out: Antiproli SNU-389 [M] median
Experimental: (§2) Assessment of the Anti-Proliferative Effect of Compounds in Different Cell Lines
(§3) The impact of compounds on the proliferation of different cell lines was assessed using the CellTiter-Glo® Luminescent Cell Viability reagent from Promega (G7573).
(§4) In parallel, cells were plated in a reference (day 0) plate for time zero determination.
(§5) Rim wells were excluded. The cells were incubated for 72 h hours in a humidified incubator at 37° C. The day 0 plate was measured by adding 30 μL/well of CTG solution (CellTiter-Glo® Luminescent Cell Viability reagent, Promega G7573) to time zero wells in the reference plate followed by a 10 minutes incubation and luminescence reading at 0.1 ms. using the PHERAstar FS microplate reader (BMG Labtech).
(§6) After 72 h incubation, the treated plates were measured in the same way as the day 0 plate mentioned above.

DMS-114 cells = experiment: Antiproliferation assay (CellTiter-Glo, 72 h), DMS-114; type: cell-based; conditions: Homo sapiens, DMS-114, 72 h; read-out: Antiproli DMS-114 [M] median
Experimental: as §2, §3, §4, §5, §6

SUDHL10 cells [2] = experiment: Induction of cytotoxicity (CellTiter-Glo, 5 h), SUDHL10; conditions: Homo sapiens, SU-DHL10, 5 h, read-out: Cytotox SUDHL10 [M] (median), IC50, median; SUDHL10, 5 h
MCL-1 = MCL-1 (Homo sapiens (Human), UniProt Q07820, K194A/K197A/R201A); experiment: Protein-protein interaction assay MCL-1/Noxa BH3 peptide (MCL-1 assay), TR-FRET; type: binding; conditions: IC50, median; MCL-1/Noxa BH3 TR-FRET
Chain of MCL-1 (Q07820 whole entry K194A/K197A/R201A, looked up, the tested form may be a part): as the sequence (Q07820 whole entry) above, with K194A, K197A, R201A counted along it
Experimental: The dose-dependent inhibition by the compounds described in this invention of the interaction between MCL-1 and the BH3 domain of Noxa (both human) was determined using a steady state binding competition assay with time-resolved fluorescence energy transfer (TR-FRET) readout. […] The MBP-MCL-1 was purchased from Beryllium (Bedford, Mass., USA). The expression and purification of this protein construct has been described elsewhere (DOI:10.1371/journal.pone.0125010). The Noxa BH3-derived peptide can be obtained from e.g. Biosyntan (Berlin, Germany), 50812.1.
For that, 100-fold concentrated DMSO solutions were prepared by serial dilutions (1:3.4) of a 2 mM stock solution in a clear, 384-well microtiter plate (Greiner Bio-One, Frickenhausen, Germany). From there, 50 nl were transferred in a dark test plate (Greiner Bio-One, Frickenhausen, Germany). […] This was followed by a 10-minute incubation step at 22° C. for pre-equilibration of the putative complex between MBP-MCL-1 and the compounds.
The mixture was incubated in the dark for one hour at 22° C. and then overnight at 4° C.
The resulting data (ratio) were normalized, taking 0% inhibition as the mean value of control measurements (usually 32 data points) where all reagents were included. In this case 50 nl DMSO were used instead of compounds. […] IC50 values were determined by regression analysis based on a 4 parameter equation (minimum, maximum, IC50, Hill; Y=Max+(Min−Max)/(1+(X/IC50)^Hill) using the Screener Software (Genedata).

AMO-1 cells = experiment: Antiproliferation assay (CellTiter-Glo, 72 h), AMO-1; type: cell-based; conditions: IC50, median, AMO-1, 72 h, read-out: Antiproli AMO-1 [M] median
Procedure, shortened: as §1

SUDHL5 cells [3] = experiment: Induction of caspase-3/7 activity (Caspase-Glo 3/7), SUDHL5; type: cell-based; conditions: EC50, median, SUDHL5, 3 h treatment
Procedure, shortened: (§7)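 Caspase-3/7 activation serves as the apoptosis read-out for MCL-1 inhibition. Cells are treated with compound for 3 h at 37 °C and assayed with Caspase-Glo 3/7; values are corrected by subtracting medium-only background.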

SUDHL10 cells [4] = experiment: Induction of caspase-3/7 activity (Caspase-Glo 3/7), SUDHL10; type: cell-based; conditions: EC50, median; SUDHL10, 3 h treatment; listed as 082
Procedure, shortened: as §7

SUDHL5 cells [5] = experiment: Antiproliferation assay (CellTiter-Glo, 72 h), SUDHL5; type: cell-based; conditions: IC50, median, SUDHL5, 72 h, read-out: Antiproli SUDHL5 [M] (median)
Procedure, shortened: as §1

SUDHL5 cells [6] = experiment: Induction of cytotoxicity (CellTiter-Glo, 5 h), SUDHL5; conditions: SUDHL5, 5 h
Experimental: Therefore, cytotoxicity assays were run in parallel in SUDHL5 and SUDHL10 cells.
The different cell lines were plated in culture medium (RPMI 1640 [GIBCO #22400-089] supplemented with 10% Fetal Bovine Serum) at a density of 3,300 cells in 30 μL/well in a sterile, solid black, flat bottom, polystyrene, TC-treated 384-well microplate (Corning #3571) using Multidrop Combi Reagent Dispenser. As a control, medium without cells was also added to the plate. Cells were incubated in a humidified incubator at 37° C. overnight. […] Rim wells were excluded. The cells were incubated for 5 h hours in a humidified incubator at 37° C. After this incubation, 30 μL of CellTiter-Glo® Luminescent Cell Viability reagent (Promega, G7573) was added to each well using the Multidrop Combi Reagent Dispenser, followed by 15 min incubation on a shaker at room temperature. Finally, luminescence was read at 0.1 ms, with a gain of 3000 using the PHERAstar FS microplate reader (BMG Labtech).

MV-4-11 cells = experiment: Antiproliferation assay (CellTiter-Glo, 72 h), MV-4-11; type: cell-based; conditions: IC50, median; MV-4-11, 72 h; read-out: Antiproli MV-4-11 [M] median
Experimental: as §2, §3, §4, §5, §6

[7] = Homo sapiens, SU-DHL-5, 5 h, read-out: Cytotox SUDHL5 [M] (median), IC50, median

In the case of CCOC(=O)c1[nH]c2c(-c3c(CC)nn(CCN4CCOCC4)c3CNC)c(Cl)ccc2c1CCCOc1cccc2ccccc12, the ring closure, isolated yield ([1]; (Z)-1,4-dichlorobut-2-ene/Cs2CO3, […]) is reported as 45%.
Work on CCOC(=O)c1[nH]c2c(-c3c(CO)nn(CCCO[Si](C)(C)C(C)(C)C)c3C)c(Cl)ccc2c1CCCOc1cccc2ccccc12 yielded a ring closure, isolated yield ([1]; (Z)-1,4-dichlorobut-2-ene/Cs2CO3/NaI, 31.9 mM, 70.0 °C) of 68%.
With Cc1c2c(nn1C)COCC1CC1Cn1c(C(=O)O)c(CCCOc3cccc4ccccc34)c3ccc(Cl)c-2c31 (single isomer, unassigned; stereoisomer 2) [Example 66, (9aR,10aS or 9aS,10aR)-3-chloro-4,5-dimethyl-14-{3-[(naphthalen-1-yl)oxy]propyl}-5,7,9a,10,10a,11-hexahydro-9H-cyclopropa[3,4]pyrazolo[4′,3′:9,10][1,6]oxazacycloundecino-[8,7,6-hi]indole-13-carboxylic acid—Stereoisomer 2] the IC50 (MCL1 protein) was 1740 nM, the IC50 (HMC-1-8 cells) was 1e-06 M and the IC50 (SNU-389 cells) was 5.76e-07 M. For the same compound, the IC50 (DMS-114 cells) was 3.15e-07 M and the IC50 (SUDHL10 cells [2]) was 1.4e-07 M.
With Cc1c2c(nn1CCCN1CCN(C)CC1)COCCCCn1c(C(=O)O)c(CCCOc3cccc4ccccc34)c3ccc(Cl)c-2c31 (single isomer, unassigned; enantiomer 1) [Example 49, (+)-4-chloro-3-methyl-2-[3-(4-methylpiperazin-1-yl)propyl]-7-{3-[(naphthalen-1-yl)oxy]propyl}-2,10,11,12,13,15-hexahydropyrazolo[4′,3′:9,10][1,6]oxazacycloundecino[8,7,6-hi]indole-8-carboxylic acid (Enantiomer 1)] the IC50 (MCL-1) was 1.7 nM, the IC50 (MCL1 protein) was 436 nM and the IC50 (AMO-1 cells; Homo sapiens, AMO1, 72 h) was 1.5e-06 M. For the same compound, the IC50 (SUDHL10 cells [2]) was 1e-06 M.
Cc1c2c(nn1C)COCC1CC1Cn1c(C(=O)O)c(CCCOc3cccc4ccccc34)c3ccc(Cl)c-2c31 (single isomer, unassigned) [Example 82, 3-chloro-4,5-dimethyl-14-{3-[(naphthalen-1-yl)oxy]propyl}-5,7,9a,10,10a,11-hexahydro-9H-cyclopropa[3,4]pyrazolo[4′,3′:9,10][1,6]oxazacycloundecino[8,7,6-hi]indole-13-carboxylic acid] showed an IC50 (MCL-1) of 1.6 nM, an EC50 (SUDHL5 cells [3]; listed as 082) of 490 nM and an EC50 (SUDHL10 cells [4]) of 1100 nM. For the same compound, the IC50 (MCL1 protein) was 225 nM, the IC50 (SUDHL5 cells [5]; Homo sapiens, SU-DHL-5, 72 h) was 8.1e-07 M and the IC50 (AMO-1 cells; listed as 082) was 2.9e-06 M. The IC50 (SUDHL5 cells [6]; [7]) was 4.9e-07 M.
In the case of Cc1c2c(nn1C)CN(C)CCCCn1c(C(=O)O)c(CCCOc3cccc4cc(F)ccc34)c3ccc(Cl)c-2c31 (single isomer, unassigned; enantiomer 2) [Example 32, (−)-4-chloro-7-{3-[(6-fluoronaphthalen-1-yl)oxy]propyl}-2,3,14-trimethyl-10,11,12,13,14,15-hexahydro-2H-pyrazolo[3′,4′:8,9][1,6]diazacycloundecino[10,11,1-hi]indole-8-carboxylic acid-N-ethylethanamine salt (Enantiomer 2)], the IC50 (MCL-1) is reported as 26 nM, the IC50 (MCL1 protein) is reported as 19100 nM and the IC50 (SUDHL5 cells [5]) is reported as 6e-06 M. The IC50 (MV-4-11 cells) was 1.4e-05 M and the IC50 (SUDHL5 cells [6]; read-out: Cytotox SUDHL5 [M] (median), IC50, median) was 9.3e-06 M.
For Cc1c2c(nn1C)COCC1CC1Cn1c(C(=O)O)c(CCCOc3cccc4ccccc34)c3ccc(Cl)c-2c31 (single isomer, unassigned; stereoisomer 1) [Example 65, (9aS,10aR or 9aR,10aS)-3-chloro-4,5-dimethyl-14-{3-[(naphthalen-1-yl)oxy]propyl}-5,7,9a,10,10a,11-hexahydro-9H-cyclopropa[3,4]pyrazolo[4′,3′:9,10][1,6]oxazacycloundecino-[8,7,6-hi]indole-13-carboxylic acid—Stereoisomer 1], the IC50 (MCL-1) was 2.7 nM, the EC50 (SUDHL5 cells [3]; Homo sapiens, SU-DHL-5, 3 h) was 270 nM and the IC50 (MCL1 protein) was 752 nM. It also gave an IC50 (SUDHL5 cells [5]; Homo sapiens, SU-DHL-5, 72 h) of 2.7e-07 M, an IC50 (AMO-1 cells; Homo sapiens, AMO1, 72 h) of 6e-07 M and an IC50 (HMC-1-8 cells) of 2.5e-06 M. It also gave an IC50 (SUDHL5 cells [6]; [7]) of 3.3e-07 M.
Work on Cc1c2c(nn1C)CN(C)CCCCn1c(C(=O)O)c(CCCOc3cccc4cc(F)ccc34)c3ccc(Cl)c-2c31 (racemic) [Example 30, (rac)-4-chloro-7-{3-[(6-fluoronaphthalen-1-yl)oxy]propyl}-2,3,14-trimethyl-10,11,12,13,14,15-hexahydro-2H-pyrazolo[3′,4′:8,9][1,6]diazacycloundecino[10,11,1-hi]indole-8-carboxylic acid] yielded an IC50 (MCL1 protein) of 227 nM, an IC50 (AMO-1 cells; Homo sapiens, AMO1, 72 h) of 4.2e-07 M and an IC50 (HMC-1-8 cells; 72 h) of 1.6e-06 M.
